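Five compound concentrations were applied to cells in 96-well plates for 48 hours; endpoints were derived by simple linear interpolation of the resulting dose-response curve. GI50: concentration for 50% inhibition of growth.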 Active and inactive are the calls of the source. No stated cut-off is given here; in the data, active = GI50 up to about 1.1 µM and inactive = higher.
Legend:
Assay in all cases: NCI-60 cell line screen, 48 h
NCI-H460 = system: NCI-H460
SN12C = system: SN12C
HL-60 = system: HL-60
HCT-15 = system: HCT-15
EKVX = system: EKVX
SW-620 = system: SW-620
SF-295 = system: SF-295
SK-MEL-5 = system: SK-MEL-5
T47D = system: T47D
MCF7 = system: MCF7
MDA-MB-231 = system: MDA-MB-231
Malme-3M = system: Malme-3M
DU-145 = system: DU-145
786-0 = system: 786-0
SK-OV-3 = system: SK-OV-3
NCI-H23 = system: NCI-H23
SK-MEL-2 = system: SK-MEL-2
CCRF-CEM = system: CCRF-CEM
IGROV-1 = system: IGROV-1
SNB-75 = system: SNB-75

| Compound | GI50 (NCI-H460) | GI50 (SN12C) | GI50 (HL-60) | GI50 (HCT-15) [µM] | GI50 (EKVX) | GI50 (SW-620) | GI50 (SF-295) | GI50 (SK-MEL-5) | GI50 (T47D) | GI50 (MCF7) | GI50 (MDA-MB-231) | GI50 (Malme-3M) | GI50 (DU-145) | GI50 (786-0) | GI50 (SK-OV-3) | GI50 (NCI-H23) | GI50 (SK-MEL-2) | GI50 (CCRF-CEM) | GI50 (IGROV-1) | GI50 (SNB-75) |
| --- | --- | --- | --- | --- | --- | --- | --- | --- | --- | --- | --- | --- | --- | --- | --- | --- | --- | --- | --- | --- |
| COc1cc(C(=O)Nc2nnc(S(N)(=O)=O)s2)cc(OC)c1OC | > 100 µM (inactive) | > 100 µM (inactive) | > 100 µM (inactive) | > 100 | > 100 µM (inactive) | > 100 µM (inactive) | > 100 µM (inactive) | > 100 µM (inactive) | > 100 µM (inactive) | > 100 µM (inactive) | > 100 µM (inactive) | > 100 µM (inactive) | > 100 µM (inactive) | > 100 µM (inactive) | > 100 µM (inactive) | > 100 µM (inactive) | > 100 µM (inactive) | – | – | – |
| Cc1ccc(C(=O)N/N=C(\N=N\c2ccccc2Cl)c2ccc(N(C)C)cc2)cc1 | 37.3 µM (inactive) | > 100 µM (inactive) | 14.1 µM (inactive) | 30.6 | 27.2 µM (inactive) | > 100 µM (inactive) | 28.8 µM (inactive) | 21.3 µM (inactive) | 2.64 µM (inactive) | 28.2 µM (inactive) | 52.6 µM (inactive) | – | 2.61 µM (inactive) | 48.3 µM (inactive) | 20.4 µM (inactive) | 50.7 µM (inactive) | 54.6 µM (inactive) | 16.6 µM (inactive) | > 100 µM (inactive) | – |
| CCOC(=O)N1CCNCCN(C(=O)OCC)CCNCC1 | > 100 µM (inactive) | > 100 µM (inactive) | > 100 µM (inactive) | > 100 | > 100 µM (inactive) | > 100 µM (inactive) | > 100 µM (inactive) | > 100 µM (inactive) | > 100 µM (inactive) | > 100 µM (inactive) | > 100 µM (inactive) | – | > 100 µM (inactive) | > 100 µM (inactive) | – | > 100 µM (inactive) | > 100 µM (inactive) | > 100 µM (inactive) | > 100 µM (inactive) | – |
| C/C(=N\O)c1cccc(Nc2c3ccccc3nc3occc23)c1 | 5.15 µM (inactive) | 11.8 µM (inactive) | 4.74 µM (inactive) | 3.38 | 5.86 µM (inactive) | – | 4.24 µM (inactive) | 3.07 µM (inactive) | 2.56 µM (inactive) | 2.39 µM (inactive) | 4.51 µM (inactive) | 2.86 µM (inactive) | 14.8 µM (inactive) | 13.4 µM (inactive) | 10.4 µM (inactive) | 4.99 µM (inactive) | 4.18 µM (inactive) | 3.4 µM (inactive) | 2.77 µM (inactive) | – |
| Cc1n[nH]c(=O)n1/N=C/c1ccncc1 | > 100 µM (inactive) | > 100 µM (inactive) | – | > 100 | > 100 µM (inactive) | > 100 µM (inactive) | > 100 µM (inactive) | > 100 µM (inactive) | > 100 µM (inactive) | – | > 100 µM (inactive) | > 100 µM (inactive) | > 100 µM (inactive) | > 100 µM (inactive) | > 100 µM (inactive) | > 100 µM (inactive) | > 100 µM (inactive) | > 100 µM (inactive) | > 100 µM (inactive) | > 100 µM (inactive) |
| C=C[C@]1(O)CCC[C@]2(C)C(=O)CCC12C (stereo partly specified) | > 100 µM (inactive) | > 100 µM (inactive) | > 100 µM (inactive) | > 100 | > 100 µM (inactive) | > 100 µM (inactive) | > 100 µM (inactive) | > 100 µM (inactive) | > 100 µM (inactive) | > 100 µM (inactive) | > 100 µM (inactive) | > 100 µM (inactive) | > 100 µM (inactive) | > 100 µM (inactive) | > 100 µM (inactive) | > 100 µM (inactive) | > 100 µM (inactive) | – | > 100 µM (inactive) | – |

Reference: ChEMBL document CHEMBL1201862, “PubChem BioAssay data set” (2004)
